The text below walks through data of patent publication US9670157B2, “Benzylamine derivatives” (KALVISTA PHARMACEUTICALS LIMITED, priority 2013, dated 2017).

The target in experiment [1] is Human plasma kallikrein (Homo sapiens (Human), UniProt P03952). Put plainly: Determination of the IC50 for Plasma Kallikrein. In kind it is biochemical. The conditions noted are these: 37° C., fluorogenic substrate H-DPro-Phe-Arg-AFC; read-out: IC50 (human PKal). Here is the method: Human plasma kallikrein (Protogen) was incubated at 37° C. with the fluorogenic substrate H-DPro-Phe-Arg-AFC and various concentrations of the test compound. Residual enzyme activity (initial rate of reaction) was determined by measuring the change in optical absorbance at 410 nm and the IC50 value for the test compound was determined.

Experiment [2] addresses Human KLK1 (Homo sapiens (Human), UniProt P06870). Put plainly: Determination of the IC50 for KLK1. In kind it is biochemical. The conditions noted are these: 37° C., fluorogenic substrate H-DVal-Leu-Arg-AFC. Summed up: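 KLK1 inhibition was measured in vitro following standard published methods. Human KLK1 (Callbiochem) was incubated at 37° C. with the fluorogenic substrate H-DVal-Leu-Arg-AFC in the presence of a range of test compound concentrations. Residual enzyme activity, taken as the initial reaction rate, was followed by the change in optical absorbance at 410 nm, and IC50 values were derived.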

Each structure is given as a SMILES string.

Chain of Human plasma kallikrein (P03952 391-638): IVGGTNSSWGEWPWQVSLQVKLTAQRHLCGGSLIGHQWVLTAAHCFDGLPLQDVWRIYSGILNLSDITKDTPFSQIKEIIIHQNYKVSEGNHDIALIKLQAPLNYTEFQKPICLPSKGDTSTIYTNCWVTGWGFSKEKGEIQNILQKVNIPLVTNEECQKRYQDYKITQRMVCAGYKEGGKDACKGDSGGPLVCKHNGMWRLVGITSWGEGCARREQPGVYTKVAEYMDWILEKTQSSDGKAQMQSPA
Chain of Human plasma kallikrein (P03952 20-390 partner): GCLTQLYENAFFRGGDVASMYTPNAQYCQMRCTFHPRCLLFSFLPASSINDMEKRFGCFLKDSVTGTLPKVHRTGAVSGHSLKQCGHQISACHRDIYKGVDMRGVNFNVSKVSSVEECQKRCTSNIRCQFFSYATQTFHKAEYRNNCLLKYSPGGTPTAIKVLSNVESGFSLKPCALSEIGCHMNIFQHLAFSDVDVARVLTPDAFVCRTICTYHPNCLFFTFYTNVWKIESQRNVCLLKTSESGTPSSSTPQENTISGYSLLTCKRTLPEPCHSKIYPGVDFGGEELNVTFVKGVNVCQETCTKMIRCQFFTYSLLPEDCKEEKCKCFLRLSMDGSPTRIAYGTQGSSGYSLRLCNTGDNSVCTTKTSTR
Chain of Human KLK1 (P06870 25-262): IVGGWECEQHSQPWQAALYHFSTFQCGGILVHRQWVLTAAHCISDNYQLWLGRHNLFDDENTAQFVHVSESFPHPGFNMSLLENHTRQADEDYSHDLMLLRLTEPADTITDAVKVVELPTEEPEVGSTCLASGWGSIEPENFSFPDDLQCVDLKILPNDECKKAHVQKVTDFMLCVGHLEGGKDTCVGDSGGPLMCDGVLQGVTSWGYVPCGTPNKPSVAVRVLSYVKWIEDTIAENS

The term IC50 denotes the point on the concentration scale where inhibition reaches its midpoint. Take `CC(C)NC(=O)c1ccc(Cn2cc(C(=O)NCc3ccc(CN)cc3)cn2)cc1` [Example 79, 1-(4-Isopropylcarbamoyl-benzyl)-1H-pyrazole-4-carboxylic acid 4-aminomethyl-benzylamide]: the 50% inhibitory concentration (IC50) was 5.55 µM in experiment [1] and greater than 10 µM in experiment [2].

As to `Cc1cnn(Cc2ccc(Cn3nc(C)c(C(=O)NCc4c(C)cc(CN)cc4C)c3C)cc2)c1` [Example 116, 3,5-Dimethyl-1-[4-(4-methyl-pyrazol-1-ylmethyl)-benzyl]-1H-pyrazole-4-carboxylic acid 4-aminomethyl-2,6-dimethyl-benzylamide], the IC50 in experiment [1] was 11.7 µM; in experiment [2] it was greater than 10 µM.

In the case of `Cc1cc(C(=O)NCc2ccc(CN)cc2)c(C)n1Cc1cc(-c2ccncc2)cs1` [Example 14, 2,5-Dimethyl-1-(4-pyridin-4-yl-thiophen-2-ylmethyl)-1H-pyrrole-3-carboxylic acid 4-aminomethyl-benzylamide], the IC50 in experiment [1] worked out at 2.29 µM; in experiment [2], 6.37 µM.

Regarding `Cc1cnn(Cc2ccc(Cn3cc(C(=O)NCc4ccc(CN)c(F)c4)c(C(F)(F)F)n3)cc2)c1` [Example 117, 1-[4-(4-Methyl-pyrazol-1-ylmethyl)-benzyl]-3-trifluoromethyl-1H-pyrazole-4-carboxylic acid 4-aminomethyl-3-fluoro-benzylamide], the IC50 is 0.051 µM in experiment [1] and greater than 10 µM in experiment [2].

Regarding `Cc1cc(C(=O)NCc2ccc(CN)cc2)[nH]c1Cc1ccccc1` [Example 76, 5-Benzyl-4-methyl-1H-pyrrole-2-carboxylic acid 4-aminomethyl-benzylamide], the concentration for half-maximal inhibition (IC50) in experiment [1] is 8.77 µM; in experiment [2], greater than 10 µM.

Take `Cc1cc(C(=O)NCc2ccc(CN)cc2)c(C)n1Cc1cccc(-c2cccnc2)c1` [Example 71, 2,5-Dimethyl-1-(3-pyridin-3-yl-benzyl)-1H-pyrrole-3-carboxylic acid 4-aminomethyl-benzylamide]: the concentration for half-maximal inhibition (IC50) in experiment [1] is 0.702 µM; in experiment [2], greater than 10 µM.

On to `Cc1cc(C(=O)NCc2ccc(CN)cc2)c(C)n1Cc1csc(-c2cccs2)n1` [Example 26, 2,5-Dimethyl-1-[2-(2-thienyl)-thiazol-4-ylmethyl]-1H-pyrrole-3-carboxylic acid 4-aminomethyl-benzylamide], for which the IC50 was 0.437 µM in experiment [1] and greater than 10 µM in experiment [2].

Take `Cc1cc(C(=O)NCc2ccc(CN)cc2)c(C)n1Cc1csc(-c2ccncc2)n1` [Example 32, 2,5-Dimethyl-1-(2-pyridin-4-yl-thiazol-4-ylmethyl)-1H-pyrrole-3-carboxylic acid 4-aminomethyl-benzylamide]: the half-maximal inhibitory concentration (IC50) in experiment [1] is 0.732 µM; in experiment [2] it was greater than 10 µM.

`Cc1cc(C(=O)NCc2ccc(CN)cc2)c(C)n1Cc1cccc(-c2ccncc2)c1` [Example 72, 2,5-Dimethyl-1-(3-pyridin-4-yl-benzyl)-1H-pyrrole-3-carboxylic acid 4-aminomethyl-benzylamide]: the values for the concentration for half-maximal inhibition (IC50) in experiment [1] and in experiment [2] were 3.02 µM and greater than 10 µM, respectively.

For the compound `Cc1cc(C(=O)NCc2ccc(CN)cc2)c(C)n1Cc1csc(Cc2ccccc2)n1` [Example 38, 1-(2-Benzyl-thiazol-4-ylmethyl)-2,5-dimethyl-1H-pyrrole-3-carboxylic acid 4-aminomethyl-benzylamide], the 50% inhibitory concentration (IC50) is 2.31 µM in experiment [1] and greater than 10 µM in experiment [2].

For the compound `Cc1cc(C(=O)NCc2ccc([C@H](C)N)cc2)c(C)n1Cc1csc(-c2ccccc2)n1` [Example 51, 2,5-Dimethyl-1-(2-phenyl-thiazol-4-ylmethyl)-1H-pyrrole-3-carboxylic acid-4-((S)-1-amino-ethyl)-benzylamide], the results for the 50% inhibitory concentration (IC50) in experiment [1] and in experiment [2] were 0.341 µM and greater than 10 µM, respectively.

In the case of `CCn1c(C(=O)NCc2ccc(CN)cc2)cc(C)c1Cc1ccc(Cn2ccccc2=O)cc1` [Example 122, 1-Ethyl-4-methyl-5-[4-(2-oxo-2H-pyridin-1-ylmethyl)-benzyl]-1H-pyrrole-2-carboxylic acid 4-aminomethyl-benzylamide], the figures for the IC50 in experiment [1] and in experiment [2] were 0.151 µM and greater than 10 µM, respectively.

For the compound `Cc1cc(C(=O)NCc2ccc(CN)cc2)c(C)n1Cc1csc(-c2cnccn2)n1` [Example 40, 2,5-Dimethyl-1-(2-pyrazin-2-yl-thiazol-4-ylmethyl)-1H-pyrrole-3-carboxylic acid 4-aminomethyl-benzylamide], the figures for the IC50 in experiment [1] and in experiment [2] were 1.66 µM and greater than 10 µM, respectively.

`Cc1cc(C(=O)NCc2ccc(CN)cc2)c(C)n1Cc1cc(-c2cccnc2)cs1` [Example 13, 2,5-Dimethyl-1-(4-pyridin-3-yl-thiophen-2-ylmethyl)-1H-pyrrole-3-carboxylic acid 4-aminomethyl-benzylamide]: the 50% inhibitory concentration (IC50) in experiment [1] is 2.38 µM; in experiment [2], greater than 10 µM.

`Cc1ccc(-c2nc(Cn3c(C)cc(C(=O)NCc4ccc(CN)cc4)c3C)cs2)cc1` [Example 35, 2,5-Dimethyl-1-(2-p-tolyl-thiazol-4-ylmethyl)-1H-pyrrole-3-carboxylic acid 4-aminomethyl-benzylamide]: the IC50 in experiment [1] is 2.1 µM; in experiment [2], greater than 10 µM.

Consider `Cc1cc(CN)cc(C)c1CNC(=O)c1cc(C)n(Cc2ccc(Cn3ccccc3=O)cc2)c1C` [Example 94, 2,5-Dimethyl-1-[4-(2-oxo-2H-pyridin-1-ylmethyl)-benzyl]-1H-pyrrole-3-carboxylic acid 4-aminomethyl-2,6-dimethyl-benzylamide], for which the IC50 in experiment [1] worked out at 0.011 µM; in experiment [2], 10.9 µM.

For `Cc1cc(C(=O)NCc2ccc(CN)cc2)c(C)n1Cc1csc(-c2ccccn2)n1` [Example 36, 2,5-Dimethyl-1-(2-pyridin-2-yl-thiazol-4-ylmethyl)-1H-pyrrole-3-carboxylic acid 4-aminomethyl-benzylamide], the IC50 in experiment [1] is 0.203 µM; in experiment [2], greater than 10 µM.

Take `CCCn1c(C(=O)NCc2ccc(CN)cc2)cc(C)c1Cc1ccccc1` [Example 78, 5-Benzyl-4-methyl-1-propyl-1H-pyrrole-2-carboxylic acid 4-aminomethyl-benzylamide]: the IC50 is 4.13 µM in experiment [1] and greater than 10 µM in experiment [2].

`Cc1cc(C(=O)NCc2ccc(CN)cc2)c(C)n1Cc1csc(-c2ccccc2)c1` [Example 10, 2,5-Dimethyl-1-(5-phenyl-thiophen-3-ylmethyl)-1H-pyrrole-3-carboxylic acid 4-aminomethyl-benzylamide]: the IC50 in experiment [1] is 0.571 µM; in experiment [2] it was greater than 10 µM.

With `Cc1cc(C(=O)NCc2ccc(CN)cc2)c(C)n1Cc1cccc(CN)c1` [Example 66, 1-(3-Aminomethyl-benzyl)-2,5-dimethyl-1H-pyrrole-3-carboxylic acid 4-aminomethyl-benzylamide], the results for the half-maximal inhibitory concentration (IC50) in experiment [1] and in experiment [2] were 5.38 µM and 4.23 µM, respectively.

`Cc1cnn(Cc2ccc(Cn3cnc(C(=O)NCc4ccc(C5(N)CC5)cc4)c3)cc2)c1` [Example 105, 1-[4-(4-Methyl-pyrazol-1-ylmethyl)-benzyl]-1H-imidazole-4-carboxylic acid 4-(1-amino-cyclopropyl)-benzylamide]: the half-maximal inhibitory concentration (IC50) is 0.941 µM in experiment [1] and greater than 10 µM in experiment [2].

On to `Cc1cc(C(=O)NCc2ccc(CN)cc2)c(C)n1Cc1csc(-c2cccc(Cl)c2)n1` [Example 27, 2,5-Dimethyl-1-[2-(3-chlorophenyl)-thiazol-4-ylmethyl]-1H-pyrrole-3-carboxylic acid 4-aminomethyl-benzylamide], for which the 50% inhibitory concentration (IC50) in experiment [1] was 0.848 µM; in experiment [2], greater than 10 µM.
